Results on one compound are retold here after US8420621B2, “Methods of using gamma cyclodextrin to control blood glucose and insulin secretion” (Abbott Laboratories, priority 2004, dated 2013).

In data set [1] the test system is male fatty Zucker fa/fa rats. Put plainly: Meal glucose tolerance test, postprandial glycemic response to a carbohydrate challenge. In kind it is in vivo, rat. The source says: The objective of the animal study was to evaluate the postprandial glycemic response of male fatty Zucker fa/fa rats to a carbohydrate challenge consisting of gamma-cyclodextrin or maltodextrin.
Twenty male fatty Zucker fa/fa rats were obtained from Harlan (Indianapolis, Ind., USA). At the time of testing, rats weighed ˜450 grams. Rats were individually housed in microisolator cages on dry bedding and were given ad libitum access to water and non-purified rat diet (pelletted; 8640 Harlan Teklad 22/5 Rodent Diet; Harlan Teklad, Madison, Wis., USA). The housing facility was maintained at 19-23° C., 30-70% relative humidity, and 12-hour light-dark cycle.
Test carbohydrates were evaluated in a randomized crossover design with a 7-day washout period between each meal glucose tolerance test (MGTT). Every rat received each treatment. Rats were routinely fed the non-purified diet. After overnight food deprivation, rats were orally fed test meals as a solution. Rats consumed the test meal within 1 minute. Blood samples were collected from the tail vein and immediately analyzed for plasma glucose by the glucose oxidase method utilizing a Precision G Blood Glucose Testing System (Medisense, Inc., Bedford, Mass., USA) before (0 minutes) and 30, 60, 90, 120, and 180 minutes postprandial. Rats had free access to water throughout the […].
Lodex 15® (maltodextrin) was obtained from Cerestar USA (Hammond, Ind., USA) with a dextrose equivalence (DE) of 15. Gamma-cyclodextrin (Wacker Cavamax W8) was obtained from Wacker Biochem Corp., Müchen, Germany. Carbohydrates were made into 500 g/L solutions with water. Each solution was heated in a microwave for 30 seconds to completely solubilize the carbohydrate solutions 1 hour before testing. Test meal volume was ˜1 mL and was adjusted such that each rat was delivered an equivalent carbohydrate challenge (1.0 g/kg body weight).

The test system of data set [2] is healthy adult subjects. Put plainly: Clinical study: postprandial serum insulin response (ELISA). The class given is in vivo, human. The source says:
Thirty-two healthy adult subjects received two treatments in a double-masked, randomized, crossover design. The two treatments consisted of 50 g challenges of either maltodextrin or gamma-cyclodextrin. Blood samples were collected over a three-hour period, and breath samples collected over an eight-hour period following consumption of each carbohydrate. […] This study utilized a randomized, double-masked, crossover design, with a 4-14 day washout period between treatments. Before completing the two treatment visits, each subject completed one pre-study gastrointestinal tolerance test visit. Randomization was carried out by sealed envelopes stating which pre-study treatment was to be received, as well as in which sequence the two treatment visits were to be carried out. These envelopes were prepared from randomization schedules generated at Ross Products Division of Abbott Laboratories, Two product coordinators assigned an envelope from the top of the pile to each subject in the order that they passed all screening criteria and were given subject numbers. Besides carrying out randomization, the product coordinators were responsible for study product inventory and serving the appropriate product to subjects at each visit so that other study staff could not become aware of the study product identity. […] At each of the two treatment visits, subjects received 16 fl oz of a study product containing either 50 g of maltodextrin or 50 g of gamma-cyclodextrin. All beverages were served cold in styrofoam cups with lids and straws, labeled only with the subject number, subject initials and visit number, with the intention of hiding any slight differences in appearance that could be visible to study staff or subjects. […] A breath sample was collected for measurement of breath hydrogen. […] After consumption of the study beverage, the subject resumed fasting. Time 0 was designated as the time at which the subject began drinking the study beverage. […] Subjects were limited to the consumption of 8 fl oz of water during this three hour blood collection period. Approximately 10 mL of normal saline was injected into the vein after each blood draw in order to keep the line open and to replace the fluid lost from the blood collected. Insulin was analyzed using DSL-10-1600 Insulin ELISA Kits (Diagnostic Systems Laboratories, mc, Webster, Tex.). […] An acidic stopping solution is then added and the enzymatic turnover of TMB is determined by dual wavelength absorbance measurement at 450 and 620 nanometers. […] is proportional to the concentration of insulin present. […]
Background: In an ELISA, binding on a coated surface is turned into a signal by an enzyme label.

The test system of data set [3] is healthy adult subjects. As to the kind of experiment: Clinical study: gastrointestinal tolerance, stool frequency and consistency. In kind it is in vivo, human. The procedure:
For the pre-study tolerance test, subjects were instructed to not consume anything the day before that was known by them to cause gastrointestinal symptoms. They also completed an overnight 10-16 hour fast. The morning of the test visit, subjects reported to the study site and consumed 8 fl oz of one of the two study beverages within 10 minutes. The study beverage contained either 25 […] of maltodextrin or 25 grams of gamma-cyclodextrin. Subjects then resumed fasting. Subjects were allowed to leave the study site after the beverage had been consumed, however they were instructed to remain fasting for three hours from the time they began drinking the beverage. Subjects recorded gastrointestinal tolerance symptoms and stool frequency and consistency for 24 hours from the time they began drinking the study beverage. Upon subject completion of the gastrointestinal tolerance symptoms and stool frequency and consistency forms, the data were reviewed for signs of abnormal tolerance by a physician. The purpose of this symptom review was to determine if the product was generally well-tolerated. […] After the 180-minute blood and breath samples were collected, the subject was allowed to leave the study site and collect the remaining breath samples (hours 4-8) on their own. During the remainder of the breath collection period, the subject was instructed to refrain from sleep and exercise. Subjects were to remain fasting with the exception of an optional one or two 8 fl oz cans of Ensure® Plus. The flavor given to each subject was the same as that which was chosen for the pre-treatment meals, and the number of cans chosen remained constant for both treatments. Subjects were allowed to consume water as desired during this time. After completion of breath sample collection, subjects were free to resume their normal sleeping, eating, and exercise patterns. They continued to record gastrointestinal symptoms, stool frequency and consistency, and medication usage for the next 48 hours. […]

Take `OC[C@H]1O[C@@H]2O[C@H]3[C@H](O)[C@@H](O)[C@@H](O[C@H]4[C@H](O)[C@@H](O)[C@@H](O[C@H]5[C@H](O)[C@@H](O)[C@@H](O[C@H]6[C@H](O)[C@@H](O)[C@@H](O[C@H]7[C@H](O)[C@@H](O)[C@@H](O[C@H]8[C@H](O)[C@@H](O)[C@@H](O[C@H]9[C@H](O)[C@@H](O)[C@@H](O[C@H]1[C@H](O)[C@H]2O)O[C@@H]9CO)O[C@@H]8CO)O[C@@H]7CO)O[C@@H]6CO)O[C@@H]5CO)O[C@@H]4CO)O[C@@H]3CO` [Gamma-Cyclodextrin, Gamma-cyclodextrin]: the “Change from baseline in plasma glucose, Change@ 0 min” value in data set [1] (0 min, 1.0 g/kg body weight oral) is 0. In addition, the “Change from baseline in plasma glucose, Change@ 30 min” value in data set [1] (30 min, 1.0 g/kg body weight oral) is 52.0 ± 9.4. Further, in data set [1] (30 min postprandial, 1.0 g/kg body weight oral), the “Plasma glucose, 30 min” value was determined as 165.6 ± 10.6. Further, in data set [1] (60 min, 1.0 g/kg body weight oral), the “Change from baseline in plasma glucose, Change@ 60 min” value is given as 48.1 ± 5.5. For the same compound, in data set [1] (60 min postprandial, 1.0 g/kg body weight oral), the “Plasma glucose, 60 min” value is 161.8 ± 7.8. Moreover, the “Change from baseline in plasma glucose, Change@ 90 min” value in data set [1] (90 min, 1.0 g/kg body weight oral) stood at 38.0 ± 4.1. Further, the “Plasma glucose, 90 min” value in data set [1] (90 min postprandial, 1.0 g/kg body weight oral) is on record as 151.6 ± 7.0. In addition, the “Change from baseline in plasma glucose, Change@ 120 min” value in data set [1] (120 min, 1.0 g/kg body weight oral) is 39.4 ± 4.3. In addition, in data set [1] (120 min postprandial, 1.0 g/kg body weight oral), the “Plasma glucose, 120 min” value was found to be 153.1 ± 6.5. Further, in data set [1] (180 min, 1.0 g/kg body weight oral), the “Change from baseline in plasma glucose, Change@ 180 min” value is on record as 28.9 ± 5.3. In addition, in data set [1] (180 min postprandial, 1.0 g/kg body weight oral), the “Plasma glucose, 180 min” value was determined as 142.6 ± 6.4. The “Glucose concentration compared to consumption of maltodextrin” value in data set [1] (at 60 and 90 minutes, P<0.05) was “lower”. Moreover, the “Plasma glucose, 0 min” value in data set [1] (baseline before test meal, 1.0 g/kg body weight oral, mean ± spread) came to 113.6 ± 4.2. Moreover, the “Glycemic response relative to a comparable amount of Lodex 15” value in data set [1] (oral, 1.0 g/kg, after heat treatment of the solution) was “blunted glycemic response”. Further, in the data set with healthy adult subjects [2] (50 g oral challenge), the “Serum insulin area under the curve (AUC), effect versus maltodextrin” value is given as “significantly reduced”. For the same compound, the “Positive incremental 120 min serum insulin AUC” value in the data set on healthy adult subjects [2] (50 g oral, mean±SEM, n=27 maltodextrin, n=31 gamma-cyclodextrin) is given as 993.4±131.6. Moreover, in the data set with healthy adult subjects [2] (50 g oral, p=0.0003), the “Adjusted peak insulin value compared with maltodextrin” value is recorded as “significantly decreased”. In the data set on healthy adult subjects [2] (baseline to 120 min, 50 g oral), the “Relative insulinemic response compared to maltodextrin” value is 51%. In the data set on healthy adult subjects [3] (25 grams oral, 24 hours, reviewing physician), the “Gastrointestinal tolerance versus maltodextrin, pre-study tolerance test” value is reported as “no significant differences”. Further, the “Stool frequency and consistency, difference between treatments” value in the data set with healthy adult subjects [3] (50 g oral) is “no significant differences”. For the same compound, in the data set on healthy adult subjects [3] (first 24 hours after 50 g oral, crossover analysis), the “Intensity and frequency of nausea, difference between treatments” value is reported as “not significantly different”.
